In assay [1] the target is T1, Carbonic anhydrase 4 (Bos taurus, UniProt Q95323).
T1 sequence (Q95323 whole entry): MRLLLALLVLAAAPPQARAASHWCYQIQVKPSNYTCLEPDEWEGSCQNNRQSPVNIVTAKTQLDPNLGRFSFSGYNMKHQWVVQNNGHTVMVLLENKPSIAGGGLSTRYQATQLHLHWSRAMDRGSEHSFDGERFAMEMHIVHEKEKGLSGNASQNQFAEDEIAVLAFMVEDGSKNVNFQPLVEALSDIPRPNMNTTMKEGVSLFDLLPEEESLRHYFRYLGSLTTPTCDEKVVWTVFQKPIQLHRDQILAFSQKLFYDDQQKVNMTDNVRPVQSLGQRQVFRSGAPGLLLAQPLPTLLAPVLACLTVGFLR

Assay [2] deals with Carbonic anhydrase 1 (Homo sapiens, UniProt P00915).

A word on the Ki: it is a measure of affinity in units of concentration, obtained from inhibition or displacement. Read a high Ki as lower affinity.

Chain of Carbonic anhydrase 1 (P00915 whole entry): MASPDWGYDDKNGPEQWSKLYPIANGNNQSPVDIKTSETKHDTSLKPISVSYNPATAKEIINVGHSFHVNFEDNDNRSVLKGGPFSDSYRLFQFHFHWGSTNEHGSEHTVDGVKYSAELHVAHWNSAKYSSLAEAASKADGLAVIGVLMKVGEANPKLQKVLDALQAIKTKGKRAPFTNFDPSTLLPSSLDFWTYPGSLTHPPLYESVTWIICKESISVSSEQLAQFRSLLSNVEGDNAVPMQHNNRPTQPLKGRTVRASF

Take `Cn1nc(S(N)(=O)=O)s/c1=N/S(=O)(=O)c1ccc(N)cc1`: the inhibition constant Ki in assay [1] was 0.008 µM; in assay [2] it was 0.009 µM.

With `NCCCC(=O)Nc1ccc(S(N)(=O)=O)cc1Br`, the Ki in assay [1] is 0.06 µM; in assay [2], 0.52 µM.

On to `NCCCC(=O)Nc1ccc(S(N)(=O)=O)cc1`, for which the inhibition constant Ki in assay [1] was 0.164 µM; in assay [2], 15.2 µM.

Consider `NCCCC(=O)NCc1ccc(S(N)(=O)=O)cc1`, for which, in assay [1], the inhibition constant (Ki) is 0.069 µM.

As to `NCCCC(=O)Nc1ccc(S(=O)(=O)Nc2ccc(S(N)(=O)=O)cc2)cc1`, the inhibition constant (Ki) in assay [1] is 0.075 µM; in assay [2] it was 0.063 µM.

In the case of `NCCCC(=O)Nc1ccc(S(N)(=O)=O)cc1F`, the inhibition constant Ki was 0.038 µM in assay [1] and 0.53 µM in assay [2].

As for `NCCCC(=O)OCc1ccc(S(N)(=O)=O)cc1`, the Ki in assay [1] is 0.18 µM; in assay [2] it was 1.75 µM.

Turning to `CCN(C(=O)CCCN)C1CC(C)S(=O)(=O)c2sc(S(N)(=O)=O)cc21` (stereo not drawn), the values for the Ki in assay [1] and in assay [2] were 0.032 µM and 0.056 µM, respectively.

On to `NCCCC(=O)NNc1ccc(S(N)(=O)=O)cc1`, for which the values for the Ki in assay [1] and in assay [2] were 0.305 µM and 22.5 µM, respectively.

For `NCCCC(=O)Nc1cccc(S(N)(=O)=O)c1`, the inhibitory constant (Ki) in assay [1] was 0.215 µM; in assay [2], 17.2 µM.

In the case of `Cn1nc(S(N)(=O)=O)s/c1=N\C(=O)CCCN`, the inhibition constant Ki was 0.042 µM in assay [1] and 0.31 µM in assay [2].

For the molecule `NCCCC(=O)Nc1nccc(Nc2ccc(S(N)(=O)=O)cc2)n1`, the Ki in assay [1] was 0.05 µM; in assay [2], 0.051 µM.

In the case of `Cn1nc(S(N)(=O)=O)s/c1=N/S(=O)(=O)c1ccc(NC(=O)CCCN)cc1`, the affinity in assay [2] corresponds to a Ki of 0.015 µM.

`NCCCC(=O)NCCC(=O)Nc1nnc(S(N)(=O)=O)s1`: the Ki in assay [1] is 0.015 µM; in assay [2], 0.024 µM.

Regarding `NCCCC(=O)Nc1c(S(N)(=O)=O)cc(S(N)(=O)=O)c(Cl)c1Cl`, the Ki in assay [1] is 0.05 µM; in assay [2] it was 0.45 µM.

As for `NCCCC(=O)Oc1ccc2nc(S(N)(=O)=O)sc2c1`, the inhibition constant Ki is 0.012 µM in assay [1] and 0.015 µM in assay [2].

On to `NCCCC(=O)OCCOc1ccc2nc(S(N)(=O)=O)sc2c1`, for which the values for the inhibition constant Ki in assay [1] and in assay [2] were 0.011 µM and 0.01 µM, respectively.

`NCCCC(=O)Nc1nnc(S(N)(=O)=O)s1`: the Ki in assay [1] is 0.043 µM; in assay [2], 0.3 µM.

With `NCCCC(=O)Nc1ccc(S(N)(=O)=O)cc1I`, the Ki in assay [1] was 0.056 µM; in assay [2], 0.5 µM.

Take `NCCCC(=O)Nc1ccccc1S(N)(=O)=O`: the inhibition constant (Ki) in assay [1] is 0.243 µM; in assay [2], 20 µM.

For `NCCCC(=O)Nc1cc(Cl)c(S(N)(=O)=O)cc1S(N)(=O)=O`, the inhibition constant Ki in assay [1] is 0.05 µM; in assay [2], 0.35 µM.

For `NCCCC(=O)Nc1ccc2nc(S(N)(=O)=O)sc2c1`, the Ki was 0.012 µM in assay [1] and 0.014 µM in assay [2].

For the molecule `NCCCC(=O)Nc1ccc(S(N)(=O)=O)cc1Cl`, the inhibition constant Ki in assay [1] is 0.063 µM; in assay [2], 0.56 µM.

With `NCCCC(=O)Nc1ccc(S(=O)(=O)Nc2cccc(S(N)(=O)=O)c2)cc1`, the Ki is 0.067 µM in assay [1] and 0.061 µM in assay [2].

Take `NCCCC(=O)NCCc1ccc(S(N)(=O)=O)cc1`: in assay [1], the affinity, expressed as Ki, was 0.062 µM.

The molecule `NS(=O)(=O)c1ccc(CCO)cc1` showed a Ki in assay [1] of 0.005 µM.

(Values after ChEMBL document CHEMBL1146110, “QSAR study on topically acting sulfonamides incorporating GABA moieties: a molecular connectivity approach” (Bioorg Med Chem Lett, 2006).)
